Laboratory results: patent US20230364079A1, “COMPOUND AS BRAIN-PERMEABLE BTK OR HER2 INHIBITOR, PREPARATION METHOD THEREFOR, AND USE THEREOF” (CHENGDU HYPERWAY PHARMACEUTICALS CO., LTD., priority 2020, published 2023)
Like-named read-outs stand apart in the source and are kept apart here.

How the values were obtained:
BT474 cell proliferation = assay: In vitro cell proliferation inhibitory activity test (CTG), BT474; format: cell-based
Protocol: (§1) Test Example 4: In Vitro Cell Proliferation Inhibitory Activity Test
(§2) Cells were cultured in 1640 medium, added with 10% inactivated FBS and 1% double antibiotics, and cultured at 37° C. and 5% CO2.
(§3) (1) Cells were routinely cultured until the cell density was 80%-90%, and the cells were harvested when their number reached the requirement.
(§4) (2) Cells were resuspended with corresponding culture medium, counted, and prepared into cell suspension at appropriate density.
(§5) (3) The cell suspension was added to a 96-well plate, 100 µL per well.
(§6) (4) Cells were cultured overnight in a 37° C., 5% CO2 incubator.
(§7) (1) The compounds to be tested were diluted with DMSO to make a stock solution with a final concentration of 20 mM for later use.
(§8) (2) The stock solution was diluted 10 times from 20 mM to 2 mM with DMSO, and then diluted 3 times from 2 mM to 9 concentrations.
(§9) (3) The blank control wells were cells plus 0.5% DMSO, as high-reading control wells.
(§10) (4) Wells with no cells and only medium were used as low-reading control wells.
(§11) 4: Cell Treatment With Compound
(1) 24 h after the cells were plated, the compounds acted alone, and 99 µL of growth medium was added to each well, followed by 1 µL of the compound prepared in step 3. […]
(§12) (3) The chemiluminescent signal value was read with the Envision instrument.
IC50 was calculated by using GraphPad Prism 8 software. […]

BTK wild-type kinase = BTK wild-type kinase (Homo sapiens (Human), UniProt Q06187); assay: BTK kinase activity inhibition test in vitro (Caliper EZ Reader); format: biochemical
In short: (§13)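 Compound (10 mM DMSO stock) preincubated with kinase 10 min at room temperature, then ATP plus kinase substrate 2 added, 10 min reaction at room temperature before stop. Substrate conversion read by Caliper mobility shift; inhibition normalised to no-enzyme and no-compound controls, IC50 by variable-slope log(inhibitor) fit.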

TMD8 cell proliferation = assay: In vitro cell proliferation inhibitory activity test (CTG), TMD8; format: cell-based, human; conditions: TMD8 cells, 72 h
Protocol: as §1, §2, §3, §4, §5, §6, §7, §8, §9, §10, §11
(1) 24 h after the cells were plated, the compounds acted alone, and 99 µL of growth medium was added to each well, followed by 1 µL of the compound prepared in step 3. The plate was shaken gently to mix uniformly, and then placed in a 37° C., 5% CO2 incubator.
(2) The cell plate was placed in an incubator for 72 h.
5: Detection by CTG Method
(1) The cell plate to be tested was placed at room temperature for 30 min, and 100 µL of medium was discarded from each well.
(2) 100 µL of CTG reagent (CelltiterGlo kit) was added to each well, placed on a fast shaker for 2 min, and stood at room temperature in the dark for 30 min.
as §12
IC50 was calculated by using GraphPad Prism 8 software. The IC50 (half inhibitory concentration) of the compound was derived using the following nonlinear fitting formula, and the results are shown in the following table: […]

[1] = Liver microsome metabolic stability test, human; format: in vitro ADME; conditions: for half-life: liver microsomes, read-out: T½
In short: (§14)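 Test compound was incubated with rat or human liver microsomes (working solution 0.5 mg/mL protein) after a 10 min pre-incubation at 37 °C, and the reaction was started with an NADPH regenerating system; a no-NADPH control ran to 60 min. Samples were quenched with acetonitrile at 0–60 min and analysed by LC-MS/MS. T½ and CLint(mic) (µL/min/mg) come from first-order elimination kinetics.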

[2] = Liver microsome metabolic stability test, rat; format: in vitro ADME; conditions: for half-life: liver microsomes, read-out: T½
In short: as §14

[3] = Pharmacokinetic test, oral, SD rats; format: in vivo; conditions: oral 10 mg/kg, plasma; for half-life: read-out: T½ (converted)
In short: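 Male/female status unstated; SD rats (3 per group) dosed orally at 10 mg/kg after overnight fast, refed 4 h post-dose. Plasma from serial blood draws stored at -20° C, protein-precipitated with internal standard solution and quantified by LC-MS/MS.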

[4] = dog PK experiments; cited from earlier work
[5] = tested on: DOHH-2-luc tumor cells in the mouse brain; assay: DOHH-2-Luc intracerebral tumor drug efficacy model test; format: in vivo
Protocol: Test Example 8: DOHH-2-Luc Intracerebral Tumor Drug Efficacy Model Test
DOHH-2-luc tumor cells were cultured in vitro with RPMI 1640 medium containing 10% fetal bovine serum and 500 ng/mL puromycin in a 37° C., 5% CO2 incubator. […] Tumor cells in logarithmic growth phase were used for inoculation of tumors in vivo.
2. Inoculation of Tumor Cell and Grouping
After the animal was anesthetized by intramuscular injection of Zoletil, it was fixed on the operating table in a prone position. The skin on the top of the head was disinfected with iodine and 75% alcohol respectively, and the skin was cut about 0.5 cm along the midline of the head to expose the coronal and sagittal lines. Being located about 0.5-1.0 mm above the coronal line and about 2 mm to the right of the sagittal line by using a brain locator, a hole was drilled with a 1 mL syringe needle. The micro-injector was inserted vertically to a depth of 3 mm at the location, slowly (about 1 min) injected with 3 × 10^5 DOHH-2-luc tumor cells /2 µL suspension and kept for 1 min. After pulling out the needle, the needle hole was quickly sealed with bone wax, and the wound was sutured with a stapler. About the 7th day after tumor inoculation, the animals were randomly divided into 5 groups according to the body weight of the animals and the optical signal intensity of the tumor site, with 5 animals in each group.
The mice were imaged 1-2 times a week according to their state using the small animal in vivo imaging system IVIS Lumina III (Perkin Elmer). The bioluminescence imaging (BLI, unit: photons/s) signal intensity at the tumor cell inoculation site of mouse was monitored as the main indicator for evaluating tumor growth and drug efficacy. The specific operation is as follows:
The mice were intraperitoneally injected with D-luciferin (15 mg/mL, 5 µL/g according to the body weight of the experimental animal), and then inhaled anesthetized with 1%-2% isoflurane. 10 min after the injection of D-luciferin, the animals were imaged with IVIS Lumina III. The data were analyzed and processed using Living Image software (Perkin Elmer), and the optical signal intensity in ROI (regions of interest) of each animal was calculated.

[6] = tested on: TMD8 mouse subcutaneous xenograft tumor; assay: TMD8 pharmacodynamic model test (mouse subcutaneous xenograft tumor); format: in vivo
Protocol: Test Example 7: TMD8 Pharmacodynamic Model Test
Human diffuse large B-cell lymphoma TMD8 cells were monolayer-cultured in vitro in RPMI1640 medium with 10% fetal bovine serum, 100 U/mL penicillin and 100 µg/mL streptomycin, in a 37° C., 5% CO2 incubator. Routine digestion with trypsin-EDTA was performed twice a week for passaging. When the cell density was 80%-90% and the number reached the requirement, cells were harvested, counted and inoculated. 0.2 ml (1×10^7 cells) of TMD8 cells (added with matrigel at a volume ratio of 1:1) were subcutaneously inoculated on the right back of each mouse. The mice were administered in groups when the average tumor volume reached about 137 mm^3. Tumor diameters were measured twice a week with vernier calipers. The tumor volume was calculated by the formula V = 0.5 a × b^2, where a and b represent the long and short diameters of the tumor, respectively.

[7] = target: BTK mutation-type C481S kinase (Homo sapiens (Human), UniProt Q06187, C481S); assay: BTK-C481S kinase activity inhibition test in vitro (Caliper EZ Reader); format: biochemical
In short: as §13

[8] = mice; cited from earlier work

Chain of BTK wild-type kinase (Q06187 whole entry): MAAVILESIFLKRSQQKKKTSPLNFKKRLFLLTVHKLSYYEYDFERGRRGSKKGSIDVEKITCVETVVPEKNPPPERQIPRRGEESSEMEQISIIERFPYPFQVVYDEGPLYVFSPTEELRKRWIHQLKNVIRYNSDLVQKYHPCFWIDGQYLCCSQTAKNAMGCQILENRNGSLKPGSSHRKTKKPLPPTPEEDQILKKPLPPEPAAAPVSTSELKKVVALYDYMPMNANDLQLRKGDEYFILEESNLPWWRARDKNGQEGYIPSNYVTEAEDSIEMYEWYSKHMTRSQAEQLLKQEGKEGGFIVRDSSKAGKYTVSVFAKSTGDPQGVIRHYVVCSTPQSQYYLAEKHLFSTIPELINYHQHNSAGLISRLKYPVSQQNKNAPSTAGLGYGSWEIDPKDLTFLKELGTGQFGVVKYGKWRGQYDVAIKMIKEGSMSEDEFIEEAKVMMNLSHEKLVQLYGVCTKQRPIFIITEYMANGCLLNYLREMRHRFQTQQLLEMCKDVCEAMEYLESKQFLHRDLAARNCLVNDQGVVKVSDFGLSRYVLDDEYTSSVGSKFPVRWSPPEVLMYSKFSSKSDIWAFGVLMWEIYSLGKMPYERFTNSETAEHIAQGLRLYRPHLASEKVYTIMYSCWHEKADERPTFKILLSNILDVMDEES
Chain of BTK mutation-type C481S kinase (Q06187 whole entry C481S): as the sequence (Q06187 whole entry) above, with C481S counted along it

| IC50 (BTK wild-type kinase) [nM] | %Remaining (60 min) [1] [%] | half-life ([1]; 0.5 mg/mL protein) [h] | %Remaining (60 min) [2] [%] | half-life ([2]; 0.5 mg/mL protein) [h] | Cl [3] [mL/min/kg] | AUC(0-inf) ([3]; rat) [ng·h/mL] | Cmax ([3]; rat, read-out: Cmax) [ng/mL] | half-life ([3]; rat) [h] | IC50 [7] [nM] | Structure (SMILES) | IC50 (TMD8 cell proliferation) [nM] | further results |
| --- | --- | --- | --- | --- | --- | --- | --- | --- | --- | --- | --- | --- |
| 20 to 100 | – | – | – | – | – | – | – | – | – | Nc1nccn2c(C3CCC(CO)OC3)nc(-c3ccc(C(F)(F)c4ccccc4)cc3)c12 (single isomer, unassigned) [Compound 111-P2] | 275 | IC50 (BT474 cell proliferation): 2180 nM |
| – | 94.2 | > 2.42 | 81.1 | > 2.42 | 10.3 | 16200 | 2410 | 3.98 | – | O=C(c1ccc(Oc2ccccc2)cc1Cl)c1c[nH]c2ncnc(N[C@@H]3CC[C@@H](CO)OC3)c12 [ARQ-531, reference compound] | – | bioavailability [4]: 38% |
| < 5 | – | – | – | – | – | – | – | – | < 5 | Nc1nccn2c(C3CCC(CO)OC3)nc(-c3ccc(C(F)(F)c4ccccc4)cc3)c12 (single isomer, unassigned) [Compound 111-P1] | 71.9 | inhibitory effect against the tumor compared with Tirabrutinib ([5]; DOHH2 tumor model in the mouse brain, same dose of 30 mg/kg (BID), FIG. 3): significantly better inhibitory effect against the tumor; tumor size in the brain by fluorescence image ([5]; DOHH-2-Luc intracerebral model, same dose, FIG. 4): very good inhibitory effect against the tumor; side effects ([5]; mouse, 30 mg/kg (BID), after 21 days of administration): no side effects; TGI (tumor inhibition rate) ([6]; 20 mg/kg): 93%; TGI relative to that of Tirabrutinib ([6]; 20 mg/kg): ~2 times; inhibitory effect against the tumor compared with Tirabrutinib ([6]; same dose of 20 mg/kg, FIG. 2): significantly better inhibitory effect against the tumor |
| < 5 | 122.5 | – | 95.5 | – | 2.18 | – | – | – | < 5 | Nc1nccn2c([C@@H]3CC[C@H](CO)OC3)nc(-c3ccc(C(=O)Nc4ccccn4)cc3)c12 (single isomer, unassigned) [Compound 2-A-P1] | 61.9 | CLint [1]: <9.6 µL/min/mg; T½ ([1]; 0.5 mg/mL protein): >2.42 h; CLint [2]: <9.6 µL/min/mg; T½ ([2]; 0.5 mg/mL protein): >2.42 h; AUC(0-∞) [3]: 77004 ng·h/mL; Cmax [3]: 25188 ng/mL; T½ [3]: 2.21 h |
| – | 28.8 | 0.53 | 38.2 | 0.663 | 161.3 | 2270 | 445 | 1.72 | – | Cc1cc(Nc2ncnc3ccc(NC4=NC(C)(C)CO4)cc23)ccc1Oc1ccn2ncnc2c1 [Tucatinib, reference compound] | – | brain permeability rate [8]: less than 5% |
